Test results reported in US20050289665A1, “Method for disinfecting seed” (priority 2004, published 2005).
Where two headings read alike, the source gives them in different places.

Assays:
[1] = tested on: microbial contaminants on the seeds; assay: Contamination of dissected embryos after disinfection of loblolly pine seed (Example 5); format: cell-based; settings: treatment 1: 30% hydrogen peroxide 15 min, vacuum, day 24 after dissection
Experimental: (§1) Methods: The first treatment was identical to the first treatment (hydrogen peroxide) described in EXAMPLE 4, and the second treatment was identical to the fifth treatment ([…]) described in EXAMPLE 4. Seed coats were cracked and removed, and the de-coated seeds were placed in sterile glass Petri plates (one plate/treatment) containing wet filter paper until dissection. Dissection was performed in quadrant Petri plates. A maximum of four seed were dissected per quadrant. […] Organ lengths and normalcy were assessed after 24 days on the medium.

[2] = tested on: microbial contaminants on the seeds; settings: loblolly pine, 30% H2O2 15 minutes; for contamination of whole seed: TSYG broth at 30° C.
Experimental: Methods: The following disinfection treatment was used for loblolly pine seed: • (1) Seed was placed in a tea strainer (about 100 seed/strainer) and soaked in deionized water for one hour with agitation; • (2) The seed in the tea strainer was soaked in a 10% solution of Liquinox (VWR Scientific) for one hour with agitation; • (3) The seed in the tea strainer was soaked in 30% H2O2 on a rotary shaker in a fume hood for 15 minutes; • (4) The seed in the tea strainer was rinsed 8 times for 10 minutes each in sterile water in a laminar flow hood; • (5) The seed in the tea strainer was hydrated in sterile water for 24 hours in a laminar flow hood; and • (6) The seed in the tea strainer was rinsed three times with sterile water for 10 minutes each.
After disinfection and hydration, seed were removed from the tea strainers and placed on a sterile Petri plate. Seed were individually removed with surface-sterilized latex gloves, cracked using autoclaved Vice-Grips, and placed in sterile quadrant Petri plates (2 seeds/quadrant) containing a drop of sterile water to avoid dehydration before dissection. After dissection, 50 whole seed and 50 dissected embryos were incubated in TSYG broth (Trypticase Soy Broth 30 g/l, Yeast Extract 5 g/l, Glucose 10 g/l, and—for a solid Petri plate or agar slant—Agar 15 g/l) and examined on a daily basis for signs of contamination during an eight week incubation period at 30° C.

loblolly pine seed = assay: Germination of dissected embryos on medium 185 (normalcy, organ lengths, epicotyl presence) after disinfection of loblolly pine seed (Example 5); settings: treatment 1: 30% hydrogen peroxide 15 min, vacuum, day 24 after dissection
Experimental: as §1

Cotyledon Length (cm) (loblolly pine seed): 0.7 cm
Epicotyl Presence (%) (loblolly pine seed): 65.7%
Hypocotyl Length (cm) (loblolly pine seed): 1.2 cm
Normalcy (%) (loblolly pine seed): 85.7%
Radicle Length (cm) (loblolly pine seed): 3.4 cm
Structure (SMILES): OO [hydrogen peroxide]
Contamination (%) [1]: 0%
contamination of whole seed ([2]; after eight weeks of incubation): 68%
contamination of whole seed ([2]; by the third day of incubation, 4 out of 50 whole seed): 8%
contamination of dissected embryos ([2]; TSYG broth, eight week incubation at 30° C.): no contamination
